Reference: PMC9293909 (Nature Communications, 2022)
Values joined by “and” are separate entries in the source; they are usually repeats but may differ in a detail not shown here. Identical values can stand only once. Like-named read-outs stand apart in the source and are kept apart here.

Columns and labels:
[1] = molecular target: T1, rA2AR (Rattus norvegicus, UniProt P30543); experiment: cAMP accumulation in CHO-K1-rA2AR cells; type: cell-based
T1 construct: expressed in transfected cells

[2] = molecular target: T2, hA1R I292^8.47 alanine mutant (Homo sapiens, UniProt P30542, I292A); experiment: cAMP inhibition, Flp-In-CHO hA1R I292A; type: cell-based; conditions: Fig4j; read-out: cAMP inhibition potency, 292A, Average (converted)
T2 construct: expressed in transfected cells
T2 sequence (P30542 whole entry I292A): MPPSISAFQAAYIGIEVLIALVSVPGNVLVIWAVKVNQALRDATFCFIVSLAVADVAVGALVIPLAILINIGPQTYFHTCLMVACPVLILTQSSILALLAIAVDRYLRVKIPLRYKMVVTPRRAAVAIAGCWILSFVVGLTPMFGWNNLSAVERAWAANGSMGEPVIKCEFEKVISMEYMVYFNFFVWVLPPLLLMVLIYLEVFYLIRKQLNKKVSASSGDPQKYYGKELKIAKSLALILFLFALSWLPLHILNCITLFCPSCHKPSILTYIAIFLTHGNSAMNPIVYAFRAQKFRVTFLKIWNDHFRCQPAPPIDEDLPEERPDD
Excerpt: (§1) Cell lines were maintained using standard subculturing routines as guided by the European Collection of Cell Culture (ECACC) and checked annually for mycoplasma infection using an EZ-PCR mycoplasma test kit from Biological Industries (Kibbutz Beit-Haemek, Israel). To investigate the signalling properties of the rat A3R (rA3R) and mutants of the human A1R (hA1R), stable cell lines were generated using Flp-In-CHO cells (ThermoFisher - R75807). Untagged hA1R from sigNanoLuciferase (Nluc)-A1R in pcDNA3.1+ and untagged rA3R from sigNluc-A3R in pcDNA3.1 + (both gifted by Dr Steve Briddon (University of Nottingham)) were cloned into the pcDNA5/FRT expression vector (Thermo Fisher Scientific). Mutations within the hA1R were made using the QuikChange Lightening Site-Directed Mutagenesis Kit (Agilent Technologies) in accordance with the manufacturer’s instructions. Constructs for generating Goa/b interfering and scrambled peptides were generated by PCR and cloned into the BamHI/HindIII site of pcDNA3.1- as described in Gilchrist et al.[60],. Prior to the initiator codon a Kozak sequence was included for enhanced translation. The peptide sequences used were: for Goa […], for Gob […], and for the scrambled peptide […] was used. Constructs were sequenced to confirm fidelity. […]

[3] = molecular target: T3, hA2AR (Homo sapiens, UniProt P29274); experiment: cAMP accumulation at hA2AR; type: cell-based
T3 construct: expressed in transfected cells; host or cells: CHO-K1
T3 sequence (P29274 whole entry): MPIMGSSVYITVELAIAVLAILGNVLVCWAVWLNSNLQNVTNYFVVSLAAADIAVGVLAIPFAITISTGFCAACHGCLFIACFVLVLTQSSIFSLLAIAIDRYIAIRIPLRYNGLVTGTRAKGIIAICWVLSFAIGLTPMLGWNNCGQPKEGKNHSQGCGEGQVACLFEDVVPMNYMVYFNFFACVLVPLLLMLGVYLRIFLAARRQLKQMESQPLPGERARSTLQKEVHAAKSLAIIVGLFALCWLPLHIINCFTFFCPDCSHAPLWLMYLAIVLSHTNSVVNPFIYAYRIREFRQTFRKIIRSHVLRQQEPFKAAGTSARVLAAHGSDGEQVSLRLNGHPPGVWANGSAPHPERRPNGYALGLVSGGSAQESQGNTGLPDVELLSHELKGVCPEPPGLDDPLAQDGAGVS
Method: CHO cell lines expressing ARs of interest (including mutants of the hA1R) were routinely cultured in Ham’s F-12 nutrient mix supplemented with 10% foetal bovine serum (FBS), at 37 °C with 5% CO2, in a humidified atmosphere.

[4] = molecular target: T4, WT hA1R (Homo sapiens, UniProt P30542); experiment: cAMP inhibition, Flp-In-CHO wild-type hA1R; type: cell-based; conditions: Fig4j
T4 construct: expressed in transfected cells
Excerpt: as §1

[5] = molecular target: T5, hA1R (Homo sapiens, UniProt P30542); experiment: cAMP inhibition in CHO-K1-hA1R cells (forskolin co-stimulation); conditions: for Range hA1R: range of response as percentage of response to 10 μM forskolin; for cAMP levels, co-stimulation with 1 μM forskolin and agonist (Fig. 1biii): individual repeats and mean
T5 sequence (P30542 1-326): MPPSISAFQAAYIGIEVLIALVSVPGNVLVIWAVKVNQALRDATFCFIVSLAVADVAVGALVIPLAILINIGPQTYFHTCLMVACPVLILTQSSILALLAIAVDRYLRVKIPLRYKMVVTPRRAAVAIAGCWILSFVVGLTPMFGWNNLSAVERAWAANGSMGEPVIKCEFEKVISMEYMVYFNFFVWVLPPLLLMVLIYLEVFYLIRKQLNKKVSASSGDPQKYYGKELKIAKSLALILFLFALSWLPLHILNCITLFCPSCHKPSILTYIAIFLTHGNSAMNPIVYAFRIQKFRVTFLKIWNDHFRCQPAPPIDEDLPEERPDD
Method: All in vitro cell signalling assay data was analysed using Prism 8.4 (Graphpad software, San Diego, CA), with all concentration-response curves being fitted using a 3 parameter logistic equation to calculate response range and IC50. All cAMP data was normalised to a forskolin concentration-response curve ran in parallel to each assay.

[6] = molecular target: T6, hA1R R291^7.56 alanine mutant (Homo sapiens, UniProt P30542, R291A); experiment: cAMP inhibition, Flp-In-CHO hA1R R291A; type: cell-based; conditions: Fig4j
T6 construct: expressed in transfected cells
T6 sequence (P30542 whole entry R291A): as the sequence (P30542 whole entry I292A) above, with R291A, A292I counted along it
Excerpt: as §1

[7] = molecular target: T1, rA2AR; experiment: NanoBRET competition binding with CA200645
Method: The data was fitted with the ‘one-site – Ki model’ derived from the Cheng and Prusoff equation, built into Prism to determine affinity (pKi) values for all unlabelled agonists at all AR subtypes assayed. […] Here data was fitted with the ‘two-site Ki model’, build into Prism to determine high affinity and low affinity values for the unlabelled agonists. […] BRET was measured following the addition of the Nluc substrate, Furimazine (0.1 μM). Non-specific binding was determined using a high concentration of unlabelled antagonist, DPCPX for rA1R, ZM241385 for the rA2AR and MRS1220 for rA3R.

[8] = molecular target: β-arrestin1 recruitment to hA1R (Homo sapiens, UniProt P30542); experiment: BRET β-arrestin1 recruitment to A1R, HEK 293T; type: cell-based
[9] = system: heart rate and mean arterial blood pressure; experiment: Urethane-anaesthetised rat, heart rate and arterial blood pressure
Excerpt: Anaesthesia was induced in adult male Sprague–Dawley rats (230-330 g) with isofluorane (2–4%; Piramal Healthcare). The femoral vein was catheterised for drug delivery. Anaesthesia was maintained with urethane (1.2–1.7 g kg^−1; Sigma) in sterile saline delivered via the femoral vein catheter. […] The trachea was cannulated and the femoral artery catheterised, and both were connected to pressure transducers (Digitimer) to record respiratory airflow and arterial blood pressure, respectively. Blood pressure and airflow signals were amplified using the NeuroLog system (Digitimer) connected to a micro1401 interface and acquired on a computer using Spike2 software (v7.08a; Cambridge Electronic Design). […] Airflow measurements were used to calculate: tidal volume (VT; mL; pressure sensors were calibrated with a 3 mL syringe), and respiratory frequency (f; breaths min^−1; BrPM). Minute ventilation (VE; mL min^−1) was calculated as f × VT.
Cardiovascular and respiratory parameters were allowed to stabilise before experiments began. A1R agonists were administered by intravenous (IV) injection and the changes in HR, MAP, f, VT, and VE were measured. […] All injections were administered IV as a 350 µl·kg^-1 bolus.

[10] = molecular target: β-arrestin2 recruitment to hA1R (Homo sapiens, UniProt P30542); experiment: BRET β-arrestin2 recruitment to A1R, HEK 293T; type: cell-based
[11] = range of response as percentage of response to 10 μM forskolin
[12] = Fig6g, average, n 4, CPA alone or CPA + BnOCPA
[13] = Fig6g, individual animal, CPA alone or CPA + BnOCPA

T1 sequence (P30543 whole entry): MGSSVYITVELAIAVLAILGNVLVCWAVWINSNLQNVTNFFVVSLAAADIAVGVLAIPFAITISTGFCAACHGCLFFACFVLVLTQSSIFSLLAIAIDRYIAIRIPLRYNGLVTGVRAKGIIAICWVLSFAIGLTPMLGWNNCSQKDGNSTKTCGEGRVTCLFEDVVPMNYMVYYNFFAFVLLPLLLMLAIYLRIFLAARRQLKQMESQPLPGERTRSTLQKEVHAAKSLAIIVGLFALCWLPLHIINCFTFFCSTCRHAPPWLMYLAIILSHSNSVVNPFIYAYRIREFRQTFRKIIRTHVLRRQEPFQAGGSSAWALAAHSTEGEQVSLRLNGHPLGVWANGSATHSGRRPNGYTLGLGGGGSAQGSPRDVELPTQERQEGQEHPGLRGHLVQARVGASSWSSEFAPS

## OC[C@H]1O[C@@H](n2cnc3c(N[C@@H]4CCC[C@H]4O)ncnc32)[C@H](O)[C@@H]1O [HOCPA, (2 R,3 R,4 S,5 R)−2-(6-{[(1 R,2 R)−2-hydroxycyclopentyl]amino}−9H-purin-9-yl)−5-(hydroxymethyl)oxolane-3,4-diol]
[1]; half-maximal response, cAMP, read-out: pEC50 rA2AR (converted)
  EC50: 2040 nM
[1]; [11]
  Range rA2AR: 48.61 ± 6.42%
[2]
  IC50: 4.79 nM
[3]; half-maximal response, cAMP, read-out: pEC50 hA2AR (converted)
  EC50: 3240 nM
[3]; [11]
  Range hA2AR: 41.66 ± 6.1%
[4]; individual replicate, read-out: cAMP inhibition potency, WT (converted)
  IC50: 0.971 nM and 1.09 nM and 1.91 nM and 1.17 nM
[4]; read-out: cAMP inhibition potency, WT, Average (converted)
  IC50: 1.23 nM
[5]
  IC50: 0.832 nM
  Range hA1R: 60.52 ± 1.5%
[6]; individual replicate, read-out: cAMP inhibition potency, 291A (converted)
  IC50: 1.66 nM and 3.36 nM and 11.1 nM and 7.67 nM and 1.61 nM and 5.5 nM and 3.5 nM
[6]; read-out: cAMP inhibition potency, 291A, Average (converted)
  IC50: 3.98 nM
[7]; displacement of CA200645, read-out: pKi rA2AR (converted)
  Ki: 13800 nM

## OC[C@H]1O[C@@H](n2cnc3c(NC4CCCC4)ncnc32)[C@H](O)[C@@H]1O [CPA, N^6-Cyclopentyladenosine]
[1]
  EC50: 2820 nM
  Range rA2AR: 39.45 ± 3.47%
[8]
  β-arrestin1 recruitment at the A1R: no β-arrestin recruitment
[9]; CPA 6 µg kg^−1 IV
  reduction of HR: ~ 50%
[9]; CPA 6 µg kg^−1 IV, from 83 ± 8 mm Hg
  MAP after injection: 51 ± 5 mm Hg
[9]; CPA 6 µg kg^−1 IV, from 408 ± 17 BPM
  HR after injection: 207 ± 29 BPM
[9]; CPA 6 µg kg^−1 alone
  effect on HR (difference from previous baseline): 179 ± 15 bpm
[9]; Fig5c, individual rat
  heart rate: 165 and 289 and 168 and 205
[9]; Fig5c, n 4
  heart rate, Average: 207
[9]; [12]
  HR, Average: -179
  MAP, Average: -55
[9]; [13]
  HR: -182.8 and -157 and -220 and -158
  MAP: -64 and -74 and -31 and -50
[9]; Fig5d, individual rat
  mean arterial blood pressure: 49 and 64 and 40
[9]; Fig5d, n 4
  mean arterial blood pressure, Average: 51
[10]
  β-arrestin2 recruitment at the A1R: no β-arrestin recruitment
[5]; Log [Agonist] -6
  cAMP levels, co-stimulation with 1 μM forskolin and agonist (Fig. 1biii): 40.1 and 40.118 and 40.1062 and 40.1555 and 40.1419 and 40.1089 and 40.1054 and 40.1072 and 40.1135 and 40.1134 and 40.1344
[5]; Log [Agonist] -7
  cAMP levels, co-stimulation with 1 μM forskolin and agonist (Fig. 1biii): 40.4 and 40.3687 and 40.2515 and 40.737 and 40.6042 and 40.2784 and 40.2436 and 40.2615 and 40.3242 and 40.3231 and 40.5303
[5]; Log [Agonist] -8
  cAMP levels, co-stimulation with 1 μM forskolin and agonist (Fig. 1biii): 42.9 and 42.7424 and 41.659 and 45.8766 and 44.7904 and 41.911 and 41.5838 and 41.7525 and 42.336 and 42.3262 and 44.1655
[5]; Log [Agonist] -9
  cAMP levels, co-stimulation with 1 μM forskolin and agonist (Fig. 1biii): 57.8 and 57.9585 and 52.2853 and 68.2239 and 65.3823 and 53.7555 and 51.8264 and 52.843 and 56.017 and 55.9674 and 63.4546
[5]; Log [Agonist] -10
  cAMP levels, co-stimulation with 1 μM forskolin and agonist (Fig. 1biii): 81.2 and 82.0022 and 77.8788 and 85.9249 and 85.1011 and 79.182 and 77.4265 and 78.3979 and 80.8371 and 80.8046 and 84.4497
[5]; Log [Agonist] -11
  cAMP levels, co-stimulation with 1 μM forskolin and agonist (Fig. 1biii): 88.4 and 88.5187 and 87.9157 and 89.0024 and 88.907 and 88.1183 and 87.8424 and 87.9978 and 88.3592 and 88.3546 and 88.8294
[5]; Log [Agonist] -12
  cAMP levels, co-stimulation with 1 μM forskolin and agonist (Fig. 1biii): 89.2835 and 89.2206 and 89.333 and 89.3233 and 89.2419 and 89.2129 and 89.2293 and 89.267 and 89.2665 and 89.3154 and 89.3
[5]; Log [Agonist] -13
  cAMP levels, co-stimulation with 1 μM forskolin and agonist (Fig. 1biii): 89.2835 and 89.2206 and 89.333 and 89.3
[5]
  Range hA1R: 48.97 ± 0.7%
[7]
  Ki: > 100000 nM
